Data from PubChem BioAssay AID330 (DTP/NCI, 2004).
Where “and” joins values, the source holds several entries; their conditions need not be identical. Identical values can stand only once. Toxic doses and inconclusive results are not listed. Peptide text beside a SMILES is read from it.

System: P388 leukemia ip, CD2F1 mice, survival T/C
Assay: NCI In Vivo Anticancer Drug Screen. Data for tumor model P388 Leukemia (intraperitoneal) in CD2F1 (CDF1) mice
Settings: endpoint: median survival time, higher = longer survival
Method in brief: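 Mice carrying the transplanted tumor received test compound or vehicle. Survival was recorded in each group, and the value is the treated-group measurement divided by that of the vehicle-treated control group.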

[1] = dose: 100.0 mg/kg/injection, schedule: Q04DX003 (ip), vehicle: saline with Tween-80
[2] = dose: 200.0 mg/kg/injection, schedule: Q04DX003 (ip), vehicle: saline with Tween-80
[3] = dose: 100.0 mg/kg/injection, schedule: Q01DX009 (ip), vehicle: saline with Tween-80
[4] = dose: 12.5 mg/kg/injection, schedule: Q01DX009 (ip), vehicle: water
[5] = dose: 50.0 mg/kg/injection, schedule: Q01DX005 (ip), vehicle: saline with Tween-80
[6] = dose: 100.0 mg/kg/injection, schedule: Q01DX005 (ip), vehicle: saline with Tween-80
[7] = dose: 200.0 mg/kg/injection, schedule: Q01DX005 (ip), vehicle: saline with Tween-80
[8] = dose: 50.0 mg/kg/injection, schedule: Q01DX009 (ip), vehicle: saline with Tween-80
[9] = dose: 200.0 mg/kg/injection, schedule: Q01DX009 (ip), vehicle: saline with Tween-80
[10] = dose: 15.0 mg/kg/injection, schedule: Q01DX005 (ip), vehicle: saline with Tween-80
[11] = dose: 30.0 mg/kg/injection, schedule: Q01DX005 (ip), vehicle: saline with Tween-80
[12] = dose: 60.0 mg/kg/injection, schedule: Q01DX005 (ip), vehicle: saline with Tween-80

## C[N+](C)(C)[N-]C(=N)c1ccccc1
dose: 25.0 mg/kg/injection, schedule: Q01DX001 (ip), vehicle: suspension in saline
  T/C: 102 % of control
dose: 50.0 mg/kg/injection, schedule: Q01DX001 (ip), vehicle: suspension in saline
  T/C: 104 % of control
dose: 100.0 mg/kg/injection, schedule: Q01DX001 (ip), vehicle: suspension in saline
  T/C: 99 % of control and 110 % of control

## CCN(CC)CCN1C(=O)c2cccc3cc(OC)cc(c23)C1=O
dose: 25.0 mg/kg/injection, schedule: Q01DX005 (ip), vehicle: saline
  T/C: 104 % of control
dose: 50.0 mg/kg/injection, schedule: Q01DX005 (ip), vehicle: saline
  T/C: 100 % of control
dose: 100.0 mg/kg/injection, schedule: Q01DX005 (ip), vehicle: saline
  T/C: 107 % of control

## CC1(C)OC(=O)C(C)(C2(O)C=CCCC2)O1 (configuration not stated)
dose: 100.0 mg/kg/injection, schedule: Q01DX001 (ip), vehicle: Klucel (hydroxypropylcellulose) (HPC)
  T/C: 102 % of control
dose: 200.0 mg/kg/injection, schedule: Q01DX001 (ip), vehicle: Klucel (hydroxypropylcellulose) (HPC)
  T/C: 102 % of control
dose: 400.0 mg/kg/injection, schedule: Q01DX001 (ip), vehicle: Klucel (hydroxypropylcellulose) (HPC)
  T/C: 101 % of control

## CCCCCCCCCCCC(=O)OCCS(=O)(=O)CCOC(=O)CCCCCCCCCCC
dose: 100.0 mg/kg/injection, schedule: Q04DX003 (ip), vehicle: Klucel (hydroxypropylcellulose) (HPC)
  T/C: 104 % of control
dose: 200.0 mg/kg/injection, schedule: Q04DX003 (ip), vehicle: Klucel (hydroxypropylcellulose) (HPC)
  T/C: 103 % of control
dose: 400.0 mg/kg/injection, schedule: Q04DX003 (ip), vehicle: Klucel (hydroxypropylcellulose) (HPC)
  T/C: 99 % of control

## NCCc1ccccc1
dose: 50.0 mg/kg/injection, schedule: Q01DX009 (ip), vehicle: saline
  T/C: 104 % of control
dose: 100.0 mg/kg/injection, schedule: Q01DX009 (ip), vehicle: saline
  T/C: 86 % of control

## c1ccc(C2SC(c3ccccc3)SC(c3ccccc3)S2)cc1 (configuration not stated)
dose: 50.0 mg/kg/injection, schedule: Q01DX009 (ip), vehicle: Klucel (hydroxypropylcellulose) (HPC)
  T/C: 109 % of control
dose: 100.0 mg/kg/injection, schedule: Q01DX009 (ip), vehicle: Klucel (hydroxypropylcellulose) (HPC)
  T/C: 107 % of control
dose: 200.0 mg/kg/injection, schedule: Q01DX009 (ip), vehicle: Klucel (hydroxypropylcellulose) (HPC)
  T/C: 108 % of control
dose: 400.0 mg/kg/injection, schedule: Q01DX009 (ip), vehicle: Klucel (hydroxypropylcellulose) (HPC)
  T/C: 106 % of control

## O=C1Cc2ccccc2C(=O)N1
[1]
  T/C: 100 % of control
[2]
  T/C: 95 % of control

## OCC(CCc1c[nH]c2ccccc12)c1c[nH]c2ccccc12 (configuration not stated)
dose: 60.0 mg/kg/injection, schedule: Q01DX005 (ip), vehicle: Klucel (hydroxypropylcellulose) (HPC)
  T/C: 90 % of control
dose: 120.0 mg/kg/injection, schedule: Q01DX005 (ip), vehicle: Klucel (hydroxypropylcellulose) (HPC)
  T/C: 90 % of control
dose: 240.0 mg/kg/injection, schedule: Q01DX005 (ip), vehicle: Klucel (hydroxypropylcellulose) (HPC)
  T/C: 93 % of control

## O=C1NC(=O)C2C1C1C3OC3C2C2C3C(=O)NC(=O)C3C12 (configuration not stated)
dose: 6.25 mg/kg/injection, schedule: Q01DX009 (ip), vehicle: saline with Tween-80
  T/C: 102 % of control
dose: 12.5 mg/kg/injection, schedule: Q01DX009 (ip), vehicle: saline with Tween-80
  T/C: 116 % of control
dose: 25.0 mg/kg/injection, schedule: Q01DX009 (ip), vehicle: saline with Tween-80
  T/C: 110 % of control
[3]
  T/C: 168 % of control

## COc1cccc2c1C(=O)c1c(O)c3c(c(O)c1C2=O)C[C@@](O)(c1csc(N2CCN(C)CC2)n1)C[C@@H]3OC1CC(N)C(O)C(C)O1 (some centres not stated)
dose: 0.39 mg/kg/injection, schedule: Q01DX009 (ip), vehicle: water
  T/C: 113 % of control
dose: 0.78 mg/kg/injection, schedule: Q01DX009 (ip), vehicle: water
  T/C: 122 % of control
dose: 1.56 mg/kg/injection, schedule: Q01DX009 (ip), vehicle: water
  T/C: 155 % of control
dose: 3.13 mg/kg/injection, schedule: Q01DX009 (ip), vehicle: water
  T/C: 158 % of control
[4]
  T/C: 122 % of control

## CSC(=S)c1c(C)cccc1C
[1]
  T/C: 110 % of control
[2]
  T/C: 100 % of control
dose: 400.0 mg/kg/injection, schedule: Q04DX003 (ip), vehicle: saline with Tween-80
  T/C: 113 % of control

## COc1ccccc1Nc1nc(-c2ccc(O)c(O)c2)cs1
[5]
  T/C: 97 % of control
[6]
  T/C: 89 % of control
[7]
  T/C: 103 % of control

## CCCCCOC(=O)CC(N)C(=O)OCCCCC (configuration not stated)
[8]
  T/C: 100 % of control
[3]
  T/C: 100 % of control
[9]
  T/C: 90 % of control

## COC(=O)Cn1/c(=N\N=C\c2ccccc2)sc2ccccc21
dose: 100.0 mg/kg/injection, schedule: Q01DX001 (ip), vehicle: saline with Tween-80
  T/C: 90 % of control
dose: 200.0 mg/kg/injection, schedule: Q01DX001 (ip), vehicle: saline with Tween-80
  T/C: 87 % of control
dose: 400.0 mg/kg/injection, schedule: Q01DX001 (ip), vehicle: saline with Tween-80
  T/C: 88 % of control

## O=[N+]([O-])c1cccc2c(Nc3ccc(S(=O)(=O)Nc4nccs4)cc3)c3ccccc3nc12
[10]
  T/C: 95 % of control
[11]
  T/C: 100 % of control
[12]
  T/C: 102 % of control and 97 % of control

## CN(C)CCCN1c2ccccc2C2CC2c2ccccc21 (configuration not stated)
dose: 5.0 mg/kg/injection, schedule: Q01DX009 (ip), vehicle: saline with Tween-80
  T/C: 100 % of control
[3]
  T/C: 98 % of control

## O=C1C=C(Nc2ccccn2)C(=O)C=C1Nc1ccccn1
[5]
  T/C: 107 % of control
[6]
  T/C: 107 % of control
[7]
  T/C: 105 % of control

## O=C(/C=C/c1ccc(Cl)cc1)/C=C/c1ccc(Cl)cc1
[8]
  T/C: 91 % of control
[3]
  T/C: 86 % of control
[9]
  T/C: 93 % of control

## CCN(CC)S(=O)(=O)C(=[N+]=[N-])P(=O)(OC)OC
dose: 100.0 mg/kg/injection, schedule: Q04DX002 (ip), vehicle: saline
  T/C: 100 % of control
dose: 200.0 mg/kg/injection, schedule: Q04DX002 (ip), vehicle: saline
  T/C: 112 % of control
dose: 400.0 mg/kg/injection, schedule: Q04DX002 (ip), vehicle: saline
  T/C: 100 % of control

## COc1cc(NC(=O)OCc2cccnc2)cc(OC)c1OC
[5]
  T/C: 98 % of control
[6]
  T/C: 98 % of control
[7]
  T/C: 93 % of control

## COc1ccc(NC(=S)C#N)cc1
[10]
  T/C: 99 % of control
[11]
  T/C: 99 % of control
[12]
  T/C: 99 % of control and 117 % of control

## CNC(=O)OCC1=C([Si](C)(C)C)C(=O)C(OC)=C(OC)C1=O
[5]
  T/C: 98 % of control
[6]
  T/C: 100 % of control

## CC(C)C(NC(=O)C(NC(=O)C(CCCN=C(N)N)NC(=O)C(N)CCCCN)C(C)C)C(N)=O (configuration not stated) (H-KRVV-NH2; configuration not given here)
[4]
  T/C: 114 % of control
dose: 25.0 mg/kg/injection, schedule: Q01DX009 (ip), vehicle: water
  T/C: 104 % of control
dose: 50.0 mg/kg/injection, schedule: Q01DX009 (ip), vehicle: water
  T/C: 110 % of control
dose: 100.0 mg/kg/injection, schedule: Q01DX009 (ip), vehicle: water
  T/C: 104 % of control
dose: 200.0 mg/kg/injection, schedule: Q01DX009 (ip), vehicle: water
  T/C: 99 % of control

## CCCCN1COCO[C@H]2CCC[C@@H]21
dose: 100.0 mg/kg/injection, schedule: Q04DX002 (ip), vehicle: Klucel (hydroxypropylcellulose) (HPC)
  T/C: 118 % of control
dose: 200.0 mg/kg/injection, schedule: Q04DX002 (ip), vehicle: Klucel (hydroxypropylcellulose) (HPC)
  T/C: 122 % of control

## CC1=CC(=O)[C@@H](O)[C@]2(C)[C@H]3[C@@]4(O)OC[C@]35[C@H]([C@@H](C)[C@H]4O)[C@@H](OC(=O)CC(C)C)C(=O)O[C@@H]5C[C@@H]12
dose: 0.5 mg/kg/injection, schedule: Q01DX005 (ip), vehicle: saline + alcohol
  T/C: 104 % of control and 122 % of control
dose: 1.0 mg/kg/injection, schedule: Q01DX005 (ip), vehicle: saline + alcohol
  T/C: 112 % of control

## O=c1[nH][nH]c(=S)n1-c1ccccc1
[8]
  T/C: 98 % of control
[3]
  T/C: 101 % of control
[9]
  T/C: 94 % of control
dose: 400.0 mg/kg/injection, schedule: Q01DX009 (ip), vehicle: saline with Tween-80
  T/C: 88 % of control

## CN=C(N)N/N=C(\c1ccccc1)c1ccc(I)cc1
dose: 25.0 mg/kg/injection, schedule: Q04DX002 (ip), vehicle: saline with Tween-80
  T/C: 104 % of control
dose: 50.0 mg/kg/injection, schedule: Q04DX002 (ip), vehicle: saline with Tween-80
  T/C: 107 % of control
dose: 100.0 mg/kg/injection, schedule: Q04DX002 (ip), vehicle: saline with Tween-80
  T/C: 107 % of control
